Source: the NIST ThermoML archive (doi:10.1021/je049579x)
“And” between values parts separate entries of the source, which are not always exact repeats. Equal values may be shown once. ± gives the expanded uncertainty stated by the source.

Conditions: Crystal, Torsion effusion method

[Br-].[Br-].[Br-].[Lu+3] [lutetium tribromide]
Conditions | vapor or sublimation pressure
903 K | 6.3e-05 ± 1.3e-05 kPa
908 K | 7.9e-05 ± 1.1e-05 kPa
909 K | 9.3e-05 ± 1.1e-05 kPa
910 K | 6.3e-05 ± 9e-06 kPa and 9.3e-05 ± 9e-06 kPa
914 K | 9.3e-05 ± 1.3e-05 kPa
917 K | 9.3e-05 ± 2.2e-05 kPa
918 K | 0.000141 ± 2.3e-05 kPa and 0.000126 ± 2.3e-05 kPa
919 K | 0.000126 ± 1.9e-05 kPa
920 K | 0.00011 ± 1.1e-05 kPa
921 K | 9.3e-05 ± 1e-05 kPa and 0.00011 ± 1.1e-05 kPa
924 K | 0.000141 ± 3.1e-05 kPa
926 K | 0.000126 ± 2.6e-05 kPa and 0.000191 ± 2.6e-05 kPa
927 K | 0.000191 ± 2.6e-05 kPa
929 K | 0.000204 ± 1.7e-05 kPa
930 K | 0.000158 ± 1.8e-05 kPa and 0.000126 ± 1.7e-05 kPa
931 K | 0.000158 ± 4.3e-05 kPa
935 K | 0.000191 ± 1.3e-05 kPa
936 K | 0.000234 ± 4.1e-05 kPa
937 K | 0.000282 ± 4e-05 kPa
938 K | 0.000251 ± 4.2e-05 kPa and 0.000219 ± 4.2e-05 kPa and 0.000282 ± 4.2e-05 kPa
939 K | 0.000282 ± 4.3e-05 kPa
940 K | 0.000191 ± 4.7e-05 kPa
946 K | 0.000316 ± 5.8e-05 kPa
947 K | 0.00038 ± 5.7e-05 kPa
948 K | 0.00038 ± 5.9e-05 kPa [middle of 4 runs]
950 K | 0.000407 ± 6.2e-05 kPa and 0.000282 ± 5.7e-05 kPa
956 K | 0.000427 ± 7.5e-05 kPa and 0.000437 ± 7.4e-05 kPa and 0.000501 ± 7.2e-05 kPa
957 K | 0.000562 ± 7.1e-05 kPa
958 K | 0.00049 ± 7.1e-05 kPa and 0.000468 ± 7.1e-05 kPa
960 K | 0.000603 ± 7.3e-05 kPa and 0.000427 ± 6.3e-05 kPa
965 K | 0.000676 ± 9.7e-05 kPa
966 K | 0.000617 ± 9.7e-05 kPa and 0.000794 ± 9.4e-05 kPa and 0.000724 ± 9.5e-05 kPa
967 K | 0.000661 ± 9.3e-05 kPa and 0.000794 ± 9.5e-05 kPa
968 K | 0.000661 ± 8.9e-05 kPa
969 K | 0.000794 ± 5.8e-05 kPa and 0.000617 ± 5.2e-05 kPa
973 K | 0.000912 ± 0.0001 kPa
975 K | 0.000813 ± 0.00013 kPa
976 K | 0.001096 ± 0.00013 kPa and 0.001047 ± 0.00013 kPa
977 K | 0.001072 ± 0.00017 kPa
978 K | 0.000912 ± 0.0002 kPa and 0.000933 ± 0.0002 kPa
979 K | 0.001096 ± 0.00019 kPa and 0.000912 ± 0.00019 kPa
981 K | 0.001175 ± 4.2e-05 kPa
984 K | 0.001445 ± 0.00017 kPa
986 K | 0.001202 ± 0.00023 kPa and 0.001413 ± 0.00022 kPa and 0.001445 ± 0.00022 kPa
987 K | 0.001318 ± 0.00023 kPa
988 K | 0.001288 ± 0.00022 kPa
989 K | 0.001514 ± 0.00019 kPa and 0.00123 ± 0.00019 kPa and 0.001585 ± 0.00019 kPa
995 K | 0.00195 ± 0.00028 kPa and 0.001778 ± 0.00029 kPa
996 K | 0.001585 ± 0.00029 kPa and 0.00195 ± 0.00028 kPa
997 K | 0.00195 ± 0.00028 kPa and 0.001778 ± 0.00028 kPa
998 K | 0.001778 ± 0.00027 kPa and 0.001622 ± 0.00026 kPa
999 K | 0.002089 ± 0.00027 kPa
1004 K | 0.00257 ± 0.00029 kPa and 0.002399 ± 0.00029 kPa
1006 K | 0.002512 ± 0.00035 kPa and 0.002089 ± 0.00035 kPa and 0.00257 ± 0.00035 kPa
1007 K | 0.002188 ± 0.00033 kPa and 0.002399 ± 0.00034 kPa
1008 K | 0.002399 ± 0.00032 kPa
1009 K | 0.002818 ± 0.0002 kPa
1013 K | 0.003311 ± 0.00034 kPa and 0.00309 ± 0.00034 kPa
1016 K | 0.003162 ± 0.00036 kPa
1017 K | 0.002951 ± 0.00034 kPa and 0.003388 ± 0.00036 kPa
1018 K | 0.003236 ± 0.0003 kPa and 0.00302 ± 0.0003 kPa and 0.003548 ± 0.0003 kPa
1023 K | 0.004074 ± 0.00026 kPa
1026 K | 0.004074 ± 0.00082 kPa
1027 K | 0.003981 ± 0.00082 kPa and 0.003802 ± 0.00082 kPa and 0.005012 ± 0.0008 kPa
1028 K | 0.00389 ± 0.00092 kPa
1038 K | 0.007244 ± 0.0013 kPa

[Cl][Lu]([Cl])[Cl] [lutetium trichloride]
Conditions | vapor or sublimation pressure
942 K | 6.3e-05 ± 6e-06 kPa
945 K | 7.9e-05 ± 1.6e-05 kPa
946 K | 7.9e-05 ± 1.6e-05 kPa
953 K | 7.9e-05 ± 1e-05 kPa
955 K | 0.000126 ± 1.5e-05 kPa
958 K | 0.00011 ± 2.5e-05 kPa
959 K | 0.000126 ± 2.1e-05 kPa
963 K | 0.000141 ± 1.9e-05 kPa
968 K | 0.000158 ± 2.5e-05 kPa
969 K | 0.000191 ± 2.4e-05 kPa
970 K | 0.000158 ± 2.4e-05 kPa
976 K | 0.000219 ± 3.4e-05 kPa
978 K | 0.000251 ± 5.4e-05 kPa
981 K | 0.000251 ± 4.4e-05 kPa
982 K | 0.000316 ± 4.2e-05 kPa
984 K | 0.000347 ± 3.9e-05 kPa
991 K | 0.00038 ± 3.5e-05 kPa and 0.000407 ± 3.5e-05 kPa
992 K | 0.00038 ± 3.4e-05 kPa
998 K | 0.000468 ± 7.9e-05 kPa and 0.00055 ± 7.9e-05 kPa
1001 K | 0.000603 ± 8.2e-05 kPa
1002 K | 0.000562 ± 8.3e-05 kPa
1004 K | 0.000617 ± 9.3e-05 kPa and 0.000575 ± 9.4e-05 kPa
1005 K | 0.000631 ± 9.3e-05 kPa
1012 K | 0.000794 ± 0.00012 kPa
1013 K | 0.000912 ± 0.00011 kPa
1016 K | 0.000933 ± 0.00013 kPa
1017 K | 0.001 ± 0.00014 kPa and 0.000912 ± 0.00015 kPa
1018 K | 0.000977 ± 0.00012 kPa
1024 K | 0.00123 ± 0.00017 kPa
1029 K | 0.001445 ± 0.00023 kPa
1030 K | 0.001445 ± 0.00023 kPa
1031 K | 0.001622 ± 0.00022 kPa
1032 K | 0.001622 ± 0.00022 kPa
1033 K | 0.00166 ± 0.00022 kPa and 0.001778 ± 0.00022 kPa
1042 K | 0.002239 ± 0.00029 kPa and 0.002188 ± 0.00029 kPa and 0.002138 ± 0.00028 kPa
1046 K | 0.00263 ± 0.00029 kPa
1047 K | 0.002692 ± 0.00034 kPa
1048 K | 0.002818 ± 0.00034 kPa
1050 K | 0.002951 ± 0.00035 kPa
1051 K | 0.002951 ± 0.00034 kPa
1053 K | 0.003162 ± 0.00032 kPa
1058 K | 0.003631 ± 0.0004 kPa
1059 K | 0.003548 ± 0.0004 kPa
1060 K | 0.003715 ± 0.0004 kPa and 0.003981 ± 0.0004 kPa
1062 K | 0.00389 ± 0.00049 kPa
1066 K | 0.004467 ± 0.0006 kPa
1071 K | 0.00537 ± 0.00072 kPa and 0.004898 ± 0.00034 kPa
1075 K | 0.005495 ± 0.00046 kPa and 0.00537 ± 0.0004 kPa
